# Measurements published in patent publication US20210300909A1, “IMMUNOMODULATORS, COMPOSITIONS AND METHODS THEREOF” (BETTA PHARMACEUTICALS CO., LTD, priority 2018, published 2021).
# Biological target: T1, PD-1/PD-L1 protein/protein interaction (Homo sapiens, UniProt Q9NZQ7)
# T1 construct: Recombinant human PD-L1 protein (19-238) with a His-tag at the C-terminus; purchased AcroBiosystems PD1-H5229 (PD-L1); PD1-H5257 (PD-1)
# Test: PD-1/PD-L1 homogenous time-resolved fluorescence (HTRF) binding assay
# Method: Resolved Fluorescence (HTRF) Binding Assay
# The assays were conducted in a standard black 384-well polystyrene plate with a final volume of 20 μL. Inhibitors were first serially diluted in DMSO and then added to the plate wells before the addition of other reaction components. The final concentration of DMSO in the assay was 1%. The assays were carried out at 25° C. in the PBS buffer (pH 7.4) with 0.05% Tween-20 and 0.1% BSA. […] Plates were centrifuged and proteins were preincubated with inhibitors for 40 min. The incubation was followed by the addition of 10 μL of HTRF detection buffer supplemented with Europium cryptate-labeled anti-human IgG (PerkinElmer-AD0212) specific for Fc and anti-His antibody conjugated to SureLight®-Allophycocyanin (APC, PerkinElmer-AD0059H). After centrifugation, the plate was incubated at 25° C. for 60 min. […] Final concentrations in the assay were […], 10 nM PD-L1, nM europium anti-human IgG and 20 nM anti-His-Allophycocyanin. IC50 determination was performed by fitting the curve of percent control activity versus the log of the inhibitor concentration using the GraphPad Prism 5.0 software.
# T1 sequence (Q9NZQ7 19-238): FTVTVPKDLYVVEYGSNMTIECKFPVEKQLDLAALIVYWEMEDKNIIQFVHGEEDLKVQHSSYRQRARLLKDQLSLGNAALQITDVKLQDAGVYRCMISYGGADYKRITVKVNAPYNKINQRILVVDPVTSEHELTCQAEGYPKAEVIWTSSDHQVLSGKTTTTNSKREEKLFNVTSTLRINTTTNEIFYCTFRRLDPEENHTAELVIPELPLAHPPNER
row,Compound,IC50 [µM]
1,"COc1cc2oc(-c3cccc(-c4cccc(OCCCN5CCOCC5)c4)c3C)nc2cc1CN1CCC(F)(F)CC1C(=O)O (stereo not shown) [Compound 16, 4,4-difluoro-1-((6-methoxy-2-(2-methyl-3′-(3-morpholinopropoxy)-[1,1′-biphenyl]-3-yl)benzo[d]oxazol-5-yl)methyl)piperidine-2-carboxylic acid]",0.025 to 0.15
2,"COc1cc2nc(-c3cccc(-c4cccc(OCCCN5CCOCC5)c4)c3C)sc2cc1CN1CCCC1C(=O)O (stereo not shown) [Compound 26, ((5-methoxy-2-(2-methyl-3′-(3-morpholinopropoxy)-[1,1′-biphenyl]-3-yl)benzo[d]thiazol-6-yl)methyl)proline]",< 0.025
3,"Cc1c(-c2cccc(OCCCN3CCOCC3)c2)cccc1-c1nc2cc(CN3CCCCC3C(=O)O)c(OCc3ccccn3)cc2o1 (stereo not shown) [Compound 22, 1-((2-(2-methyl-3′-(3-morpholinopropoxy)-[1,1′-biphenyl]-3-yl)-6-(pyridin-2-ylmethoxy)benzo[d]oxazol-5-yl)methyl)piperidine-2-carboxylic acid]",0.025 to 0.15
4,"COc1cc2oc(-c3cccc(-c4cccc(NC(=O)NCCNCCO)c4)c3C)nc2cc1CN1CCCCC1C(=O)O (stereo not shown) [Compound 5, 1-((2-(3′-(3-(2-((2-hydroxyethyl)amino)ethyl)ureido)-2-methyl-[1,1′-biphenyl]-3-yl)-6-methoxybenzo[d]oxazol-5-yl)methyl)piperidine-2-carboxylic acid]",0.025 to 0.15

# The next lines start with the values.
row,IC50 [µM],Compound
1,0.025 to 0.15,"COc1cc2oc(-c3cccc(-c4cccc(CC5OC5CN5CCOCC5)c4C)c3C)nc2cc1CN1CCCCC1C(=O)O (stereo not shown) [Compound 27, 1-((2-(2,2′-dimethyl-3′-((3-(morpholinomethyl)oxiran-2-yl)methyl)-[1,1′-biphenyl]-3-yl)-6-methoxybenzo[d]oxazol-5-yl)methyl)piperidine-2-carboxylic acid]"
2,< 0.025,"COc1cc2oc(-c3cccc(-c4cccc(OCCCN(C)C)c4C)c3C)nc2cc1CN1CCCCC1C(=O)O (stereo not shown) [Compound 30, 1-((2-(3′-(3-(dimethylamino)propoxy)-2,2′-dimethyl-[1,1′-biphenyl]-3-yl)-6-methoxybenzo[d]oxazol-5-yl)methyl)piperidine-2-carboxylic acid]"
3,< 0.025,"COc1cc2c(cc1CN1CCOCC1C(=O)O)nc(-c1cccc(-c3cccc(OCCCN4CCOCC4)c3)c1C)n2C (stereo not shown) [Compound 14, 4-((6-methoxy-1-methyl-2-(2-methyl-3′-(3-morpholinopropoxy)-[1,1′-biphenyl]-3-yl)-1H-benzo[d]imidazol-5-yl)methyl)morpholine-3-carboxylic acid]"
